Laboratory results taken from patent US6414158B1, “1,3,4-oxadiazine derivatives and their use as pesticides” (Bayer AKtiengesellschaft, priority 1996, dated 2002).

Molecule `CCN1C(=O)OCC(=O)N1Cc1ccc(Cl)nc1` [Example I-16, 4-(2-chloro-5-pyridylmethyl)-3-ethyl-1,3,4-oxadiazine-2,5-dione] has a melting point of 125 to 128 °C.
